Assay results as given in patent US6545021B1, “Use of substituted-1,5-dideoxy-1,5-imino-D-glucitol compounds for treating hepatitis virus infections” (G.D. Searle & Co., priority 1999, dated 2003).

Assays:
[1] = test system: woodchuck hepatitis virus (WHV); experiment: Woodchuck model, N-nonyl-DNJ monotherapy, BID oral dosing; assay type: in vivo
Description: Therefore, five groups of four animals each (all groups had both sexes, all but the control had two of each sex) were assigned to 0, 12.5, 25, 50, and 100 mg/kg/day with BID oral dosing. These were lab-reared wild animals. All animals were infected with woodchuck hepatitis virus (WHV) as neonates, and had been tested positive on serological tests for WHV surface antigen. Blood samples were drawn one week prior to dosing (−1 week), immediately before dosing (0 weeks), weekly during dosing (1, 2, 3, and 4 weeks), and after the end of dosing (5, 6, 8, and 10 weeks).
(§1) There are two measures of drug efficacy: reduction in total HBV DNA (measured by quantitative PCR), and reduction in HBV DNA from capsids with intact surface glycoproteins, which is the active form of the virus (measured by an ELISA-like immune precipitation assay followed by quantitative PCR).
Before models are fitted to the data, a log transform was applied because: 1) the variation in IPDNA increases with increasing IPDNA values; the log transformation gives values with a nearly constant variation, and 2) it is expected that drug effects will appear as a constant multiplier of the IPDNA level. Because there are zero values of IPDNA, a small value (about ½ of the smallest non-zero value) was added to all values before the log transform.
Two approaches were used to model the changes in slope to week with dose of N-nonyl-DNJ: a linear modeling approach and a nonlinear model. Both approaches assume that the (linear) rate of change of the Log(IPDNA) measure over the dosing period is the “right” measure to reflect the effect of the drug on the virus. Both approaches are fit in stages, and the first stage is common to both approaches. First, a simple straight line regression model is fit using weeks 0-4 to predict log(IPDNA_+—10) separately for each animal by run combination. In the second stage, the response variable is the slope fitted in the first stage.
For the linear approach, a model is fit with slope to week as the response where run is considered a block, dose has a significant effect (almost all of this effect is due to a slope to dose), and the relevant error for testing the effect of dose is the variation among animals treated alike (after the adjustment for the runs as blocks). This is similar to using the calibration data within each run to first adjust each run's data to a common virus DNA concentration; the difference is that here the data from the woodchucks are used for the run adjustment rather than only the calibration data.
For the nonlinear approach, a four parameter logistic model is fit with the slope to week as the response and the dose as the predictor. Again, run is considered a block, but because no run has all weeks, it is not possible to fully reflect the blocking in the nonlinear approach. […] The average maximum slope observed was 2.71 additional Log(IPDNA g/mL)/week, or an increase of about 150%/week, the average minimum slope observed with N-nonyl-DNJ is 0.31 fewer Log(IPDNA g/mL)/week), or about a decrease of about 25%/week. The slopes, the fitted model, the parameter estimates from the model, and the approximate standard errors for these parameters are all shown in FIG. 3. […] Whether in woodchucks or humans, the effective dose of both the N-alkyl-DNJ and nucleoside or nucleotide antiviral agent administerd in combination therewith can be administerd in two equal daily subdoses (i.e., B.I.D.).

[2] = test system: HBV; experiment: Cell culture experiments with N-nonyl-DNJ: total HBV DNA and immune precipitated DNA; assay type: cell-based, hepatitis B virus
Text: as §1

For `CCCCCCCCCN1C[C@H](O)[C@@H](O)[C@H](O)[C@H]1CO` [N-nonyl-DNJ, N-(n-nonyl)-1,5-dideoxy-1,5-imino-D-glucitol], which “effect on total HBV DNA measurements” value ([1]; all dose levels, quantitative PCR) is on record?
The value was “no effect”.

And the “levels of IPDNA over the dosing period” value ([1]; high dose animals, weeks 0-4)?
The value was “decreasing levels of IPDNA”.

And the “levels of IPDNA over the dosing period” value ([1]; low dose animals, weeks 0-4)?
The value was “increasing levels of IPDNA”.

And the “average minimum slope observed” value ([1]; weeks 0-4)?
Its value is 0.31 fewer Log(IPDNA g/mL)/week.

And the “decrease of IPDNA per week at average minimum slope” value ([1]; weeks 0-4)?
The value was “about 25 %/week”.

What about the “approximate effective monotherapy dose” value ([1]; woodchucks) of the same compound?
Its value is “about 16 mg/kg/day”.

And the “effect on the immune precipitated DNA (IPDNA)” value [2]?
The value was “marked effect”.

What about the “effect on total HBV DNA” value [2] of the same compound?
The value was “little or no effect”.
